Experimental data taken from patent publication US4207326A, “Antimicrobial quaternary pyrazole derivatives” (Cilag-Chemie A.G., priority 1979, dated 1980).
Where two headings read alike, the source gives them in different places.

What was measured:
S. schenkii = assay: Antifungal activity: Minimum Inhibitory Concentration; assay type: cell-based, Sporotrichon schenkii NCPF 3182; conditions: for MIC: read-out: Minimum Inhibitory Concentration
Procedure: (§1) The antimicrobial activity was determined by inoculation of the test microorganism into suitable growth media containing solutions of the compounds at concentrations of 100, 50, 10, 5, 1.0, 0.5 and 0.1 μg/ml. The reference antibiotics used were Gentamicin for the antibacterial tests and Amphotericin B for the antimycotic and antifungal tests. After incubation the antimicrobial activity was recorded as the Minimal Inhibitory Concentration (M.I.C.), i.e., the lowest concentration preventing macroscopically visible growth, for each test compound against each organism.
(§2) An initial solution of each formula (I) compound to be tested in sterile distilled water was prepared at a concentration of 1000 μg/ml. With appropriate dilutions using sterile distilled water, additional solutions were prepared at concentrations of 500, 100, 50, 10, 5 and 1 μg/ml.
(§3) The A. corymbifera, A. fumigatus, S. schenkii, T. rubrum, T. mentagrophytes, M. canis and P. verrucosa strains were all maintained on Sabouraud-Dextrose Agar (Oxoid CM 41) by incubating for 14 days at 27° C. To prepare the inocula 30 ml volumes of Sabouraud-Liquid medium (Oxoid CM 147) were inoculated from the agar cultures and incubated at 27° C. until heavy uniform growth resulted. The mycelial growth was then broken up by shaking with glass beads.
(§4) 1 Ml aliquots were removed from each of the cultures for the purpose of making viable counts and the cultures were then held at 4° C. The viable counts were made by preparing serial ten-fold dilutions of the cultures in sterile physiological saline and spreading on plates of Sabouraud-Dextrose Agar (Oxoid CM 41) which were then incubated at 27° C. for 14 days. When the viable counts had confirmed that each of the inocula contained approximately 10^6 colony forming units (C.F.U.) per ml the cultures were withdrawn from the refrigerator and used as the inocula for the tests.
(§5) (c) For the tests on each of the remaining seven strains and each of the test and reference compounds, a series of 8 tubes containing 4.5 ml volumes of Sabouraud-Liquid Medium (Oxoid CM 147) were prepared. To 7 of these were added 0.5 ml volumes of the final solutions of the test compounds, giving final concentrations in the broths of 100, 50, 10, 5, 1.0, 0.5 and 0.1 μg/ml. To the eighth tube in each series was added 0.5 ml of the solvent used and diluted as for the preparation of the 500 μg/ml solution of the compound. This tube was used as a growth control. The tubes were then inoculated with 0.1 ml aliquots of the inocula prepared as in "(b) Fungi" above. The tubes were then incubated at 27° C. with continuous shaking for a period of one week. The tubes were then examined for evidence of growth as shown by the presence of mycelial growth in the medium and the lowest concentration of the test compound which prevented fungal growth was recorded as the Minimal Inhibitory Concentration. This test procedure was carried out on two separate days.

T. mentagrophytes = assay: as above; assay type: cell-based, Trichophyton mentagrophytes NCPF 410; conditions: T. mentagrophytes, 27° C., one week; for MIC: Trichophyton mentagrophytes, read-out: Minimum Inhibitory Concentration
Procedure: as §1, §2
T. mentagrophytes NCPF 410
as §3, §4, §5

A. fumigatus = assay: as above; assay type: cell-based, Aspergillus fimigatus (A. fumigatus) NCPF 2140; conditions: A. fumigatus, 27° C., one week; for MIC: Aspergillus fumigatus, read-out: Minimum Inhibitory Concentration
Procedure: as §1, §2, §3, §4, §5

S. pyogenes = assay: Antibacterial activity: Minimum Inhibitory Concentration; assay type: cell-based, Streptococcus pyogenes NCTC 8198; conditions: 24 hours; for MIC: Streptococcus pyogenes
Procedure: as §1, §2
They were cultured and maintained on Tryptone Soy Agar (Oxoid CM 131), with the addition of 10% horse blood for the S. pyogenes.
To prepare the organisms as inocula for the test, slopes of this medium were streaked with the organisms and incubated at 37° C. for 24 hours. 4.5 Ml volumes of Brian-Heart Infusion Broth (Oxoid CM 225) were then inoculated with a platinum loop from the agar slope cultures and incubated for 24 hours at 37° C. The final inocula were then prepared by adding 0.1 ml aliquots of the Brain-Heart Infusion Broth cultures to 100 ml volumes of sterile physiological saline.
(a) For the test on each of the bacterial strains and each of the test and reference compounds, a series of 8 tubes containing 4.5 ml volumes of Brain-Heart Infusion Broth (Oxoid CM 225) were prepared. To 7 of these were added 0.5 ml volumes of the final solutions of the test compouns, giving final concentrations in the broths of 100, 50, 10, 5, 1.0, 0.5 and 0.1 μg/ml. To the eighth tube in each series was added 0.5 ml of the solvent used and diluted as for the preparation of the 1000 μg/ml solution of the compound. This tube was used as the growth control. The tubes were inoculated with 0.02 ml aliquots of the inocula prepared in accordance with "(a) Bacteria" above, and incubated at 37° C. for 24 hours. The tubes were then examined for evidence of bacterial growth as shown by turbidity of the medium and the lowest concentration of the test compound which prevented bacterial growth was recorded as the Minimal Inhibitory Concentration. This test procedure was carried out on two separate days.

[1] = S. schenkii, Day 1, 27° C., one week
[2] = S. schenkii, Day 2, 27° C., one week

Molecule | Minimum Inhibitory Concentration (S. schenkii; [1]) | Minimum Inhibitory Concentration (S. schenkii; [2]) | Minimum Inhibitory Concentration (T. mentagrophytes; Day 1) | Minimum Inhibitory Concentration (T. mentagrophytes; Day 2) | Minimum Inhibitory Concentration (A. fumigatus; Day 1) | Minimum Inhibitory Concentration (A. fumigatus; Day 2) | Minimum Inhibitory Concentration (S. pyogenes; Day 1, 37° C.) | Minimum Inhibitory Concentration (S. pyogenes; Day 2, 37° C.) | MIC (S. schenkii; [1]) | MIC (S. schenkii; [2]) | MIC (T. mentagrophytes; Day 1) | MIC (T. mentagrophytes; Day 2) | MIC (A. fumigatus; Day 1) | MIC (A. fumigatus; Day 2) | MIC (S. pyogenes; Day 1, 37° C.) | MIC (S. pyogenes; Day 2, 37° C.) | MIC (S. schenkii)
2,3(5)-dimethyl-1-hexadecyl-pyrazolium methosulfate [Example 9] | 5 µg/mL | 5 µg/mL | 5 µg/mL | 5 µg/mL | 5 µg/mL | 10 µg/mL | 0.5 µg/mL | 0.5 µg/mL |  |  |  |  |  |  |  |  | 
C=CCn1c(C)cc(C)[n+]1CCCCCCCCCCCCCCCC.[Br-] [Example 7, 2-allyl-3,5-dimethyl-1-hexadecyl-pyrazoliumbromide] |  |  |  |  |  |  |  |  | 5 µg/mL | 5 µg/mL | 1 µg/mL | 5 µg/mL | 10 µg/mL | 50 µg/mL | 0.5 µg/mL | 0.5 µg/mL | 
2,3(5)-dimethyl-1-dodecyl-pyrazolium methosulfate [Example 8-A] | 10 µg/mL | 10 µg/mL | 5 µg/mL | 5 µg/mL | 100 µg/mL | 100 µg/mL | 5 µg/mL | 5 µg/mL |  |  |  |  |  |  |  |  | 
CCCCCCCCCCCCn1ccc[n+]1C [Example 3-E, 1-dodecyl-2-methy-pyrazolium methosulfate] |  |  |  |  |  |  |  |  | 50 µg/mL | 10 µg/mL | 1 µg/mL | 5 µg/mL | 50 µg/mL | 10 µg/mL | 5 µg/mL | 5 µg/mL | 
CCCCCCCCCCCCCCCC[n+]1c(C)cc(C)n1C.Cc1ccc(S(=O)(=O)[O-])cc1 [Example 6-C, 1-hexadecyl-2,3,5-trimethylpyrazolium p-toluene sulfonate] |  | 5 µg/mL | 5 µg/mL |  |  | 5 µg/mL |  |  |  |  |  |  |  |  |  |  | 5 µg/mL
CCCCCCCCCCCC[n+]1c(C)cc(C)n1Cc1ccc(Cl)cc1.[Br-] [Example 6-E, 2-(p-chlorobenzyl)-3,5-dimethyl-1-dodecyl-pyrazolium bromide] |  |  |  |  |  |  |  |  | 5 µg/mL | 1 µg/mL | 5 µg/mL | 5 µg/mL | 10 µg/mL | 5 µg/mL | 0.5 µg/mL | 0.5 µg/mL | 
CCCCCCCCCCCCCCn1ccc[n+]1C [Example 3-G, 2-methyl-1-tetradecyl-pyrazolium methosulfate] |  |  |  |  |  |  |  |  | 5 µg/mL | 10 µg/mL | 1 µg/mL | 5 µg/mL | 50 µg/mL | 50 µg/mL | 0.5 µg/mL | 0.5 µg/mL | 
CCCCCCCCCCCCCC[n+]1c(C)cc(C)n1Cc1ccc([N+](=O)[O-])cc1.[Br-] [Example 6-D, 3,5-dimethyl-2(4-nitrobenzyl)-1-tetradecyl-pyrazolium bromide] |  |  |  |  |  |  |  |  | 5 µg/mL | 5 µg/mL | 10 µg/mL | 10 µg/mL | 50 µg/mL | 50 µg/mL | 0.5 µg/mL | 1 µg/mL | 
CCCCCCCCCCCC[n+]1c(C)cc(C)n1Cc1ccc(Cl)cc1Cl.[Br-] [Example 6-B, 2-(2,4-dichlorobenzyl)-3,5-dimethyl-1-dodecyl-pyrazolium bromide] |  |  |  |  |  |  |  |  | 1 µg/mL | 1 µg/mL | 1 µg/mL | 1 µg/mL | 5 µg/mL | 5 µg/mL | 0.5 µg/mL | 0.5 µg/mL | 
CCCCCCCCCCCCCCCCn1ccc[n+]1C [Example 3-D, 1-hexadecyl-2-methyl-pyrazolium methosulfate] |  |  |  |  |  |  |  |  | 5 µg/mL | 10 µg/mL | 1 µg/mL | 1 µg/mL | 50 µg/mL | 10 µg/mL | 0.5 µg/mL | 0.5 µg/mL | 
CCCCCCCCCCCCn1c(C)cc(C)[n+]1C [Example 1, 1-dodecyl-2,3,5-trimethyl-pyrazolium methosulfate] |  |  |  |  |  |  |  |  | 50 µg/mL | 10 µg/mL | 50 µg/mL | 50 µg/mL | 100 µg/mL | > 100 µg/mL | 1 µg/mL | 0.5 µg/mL | 
